# Results published in patent publication US11633370B2, “Use of scavengers of reactive gamma-ketoaldehydes to extend cell lifespan and healthspan” (Vanderbilt University, priority 2016, dated 2023).
# Assays:
# N2 WT C. elegans [1] = test: F3-IsoP quantification by GC/MS, N2; format: in vivo; conditions: Day 1 of adulthood until Day 15
# Source text: One of the major stimuli for activation of sirtuins is oxidative stress. […] Indeed, the mitochondrial antioxidant manganese superoxide dismutase (MnSOD) has been identified as one of the major protein targets that is deacetylated by sirtuin isoforms, with deacetylation enhancing the enzymatic activity of MnSOD [60]. If SA indeed preserves SIR-2.1 enzymatic function in vivo, the present inventors hypothesized that SA treatment would dose-dependently decrease biomarkers of oxidant injury in a SIR-2.1-dependent manner. To quantify oxidant injury, the present inventors measured F3-isoprostanes (F3-IsoPs). […] To further characterize SA's ability to preserve SIR-2.1 function, the present inventors assessed acetylation of MnSOD at Lys 122.
# F3-Isoprostanes were quantified from SA-treated worms a gas-chromatography-negative ion chemical ionization-mass spectrometry (GC-NICI-MS) approach. […]
# Samples were spiked with 248 pg of deuterated internal standards, [^2H4]-15-F2t-IsoP, quantified and calibrated by the method of Milne et al. and acidified to pH<3 with HCl in preparation for further Separation Phase Extraction (SPE). […]
# Eluates were dried under nitrogen and F3—IsoPs and resuspended in MeOH for separation by Thin Layer Chromatography (TLC). […] Deuterated F2-IsoP standard was measured at m/z 573. F3—IsoP was measured at m/z 567. […]
# N2 WT C. elegans [2] = test: mtDNA copy number by qPCR, N2; format: in vivo; conditions: with age or with SA treatment
# Source text: Mitochondria lie at the center of aging biology, playing crucial roles in energy production, carbon substrate metabolism, apoptosis regulation, and redox balance and signaling. Since sirtuins play a major role in regulating mitochondrial function, the present inventors next wanted to investigate whether SA was exerting any of its effects via protection of mitochondrial processes. To investigate SA's effects on mitochondrial respiration, the present inventors administered SA to WT N2 (FIG. 5A) and non-functional SIR-2.1 mutant worms (FIG. 5B) and measured oxygen consumption rate (OCR) in whole worms over several days. […] The present inventors also examined the effect of SA treatment on mitochondrial DNA (mtDNA) integrity.
# Relative mitochondrial and nuclear copy number were measured by quantitative, real-time PCR [90]. Primers for NADH dehydrogenase unit 1 (nd1) and a 164 bp region of the cox-4 gene were used in determination of mtDNA copy number. The nd1 forward primer 5′-[…]-3′ and reverse primer 5′-[…]-3′. Cox-4 forward primer 5′-GCCGACTGGAAGAACTTGTC-3′ and reverse primer 5′-[…]-3′. […] Amplified products were detected with SYBR Green (iQ™ SYBR® Green Supermix, Bio-Rad) and fluorescent signal intensities were determined by CFX96 Touch™ Real-Time PCR Detection System (Bio-Rad) by software CFX Manager™ (version 3.1). […]
# [3] = in vivo; cited from earlier work
smiles,measurement,setting,value
"NCc1ccccc1O [SA, salicylamine]",decrease in F3-IsoP production,"N2 WT C. elegans [1]; 100 μM SA, p<0.01",29%
same,decrease in F3-IsoP levels,"N2 WT C. elegans [1]; 500 μM SA, p<0.005",44%
same,mtDNA copy number relative to nuclear DNA,N2 WT C. elegans [2],no significant difference
same,oral bioavailability,[3],orally bioavailable
